Reference: patent US9598667B2, “Use of metal ions for modulation of protein glycosylation profiles of recombinant proteins” (AbbVie, Inc., priority 2013, dated 2017)

Columns and labels:
[1] = tested on: CHO cell line expressing Antibody 2; assay: Shake flask fedbatch culture performance, cell line expressing Antibody 2; format: cell-based, Chinese Hamster; details: 0.1 or 1.0 mM in basal medium; vs unsupplemented control
Source text: (§1) To test the effect of metal ions of protein glycosylation, recombinant Chinese Hamster Ovary (CHO) cell lines (CHO DUX-B11 origin based on a DHFR (dihydrofolate reductase) expression system) expressing two different humanized monoclonal antibodies (Antibody 1, Antibody 2) or a dual variable domain immunoglobulin (DVD-Ig) were shake flask cultured in chemically defined basal medium (CDBM) and chemically defined feed medium (CDFM) supplemented with selected iron compounds. The cell lines were serially expanded through separate seed train inoculums to generate enough cells for inoculation. All supplemented cultures were performed in triplicate unless otherwise indicated.
Absolute concentrations were assigned with respect to reference standard calibration curves.
The unsupplemented control was performed in duplicate.

[2] = tested on: N-glycan glycosylation profile of DVD-Ig (DVD 1) expressed in CHO cells; assay: N-glycan oligosaccharide profile of DVD-Ig (DVD 1) from shake flask culture; format: cell-based, Chinese Hamster
Protocol: Sodium citrate was included to provide additional evidence that the impact to the oligosaccharide profile with the prior experiments was a result of the iron addition. All conditions were performed in triplicate.

[3] = tested on: N-glycan glycosylation profile of Antibody 1; assay: N-glycan oligosaccharide profile of Antibody 1 in bioreactors; format: cell-based, Chinese Hamster; details: pH 6.90, dissolved oxygen 40% air saturation, two independent experiments
Protocol: Prior experiments included iron supplementation in shake flask cultures. Experiments with the cell line expressing Antibody 1 and with a cell line expressing a different DVD-Ig (denoted DVD 2, also called ABT-122) than discussed previously were carried out to confirm the impact from iron supplements would be observed in bioreactors. Operating conditions were similar to shake flask experiments, but now included pH control at pH 6.90 and dissolved oxygen control at a setpoint of 40% air saturation. Antibody 1 bioreactors were run in triplicate with the exception of the 0.08 mM FC condition. DVD 2 bioreactors were run in duplicate.

[4] = tested on: N-glycan glycosylation profile of Antibody 1 expressed in CHO cells; assay: N-glycan oligosaccharide profile of Antibody 1 from shake flask culture (2-AB labelling, normal phase HPLC); details: for galactosylation: Example 7
Source text: as §1
The glycosylation profile of the recombinantly expressed proteins was then determined using standard procedures. Approximately 200 μg of Protein A purified samples from Cell Lines 1 and 2 were then treated with N-glycanase at 37° C. overnight to remove the N-glycans from the protein. The protein was precipitated and the supernatant was taken for subsequent chemical derivatization of the reducing end of the released glycans with 2-aminobenzamide (2-AB) dye. Following the derivatization step, the excess labeled was removed using clean up cartridges and the samples were analyzed using normal phase HPLC with fluorescent detection. Mobile phase A was 100% acetonitrile and mobile phase B was 50 mM ammonium formate pH 4.4. The glycan were eluted from a polyamide column (Prozyme, Hayward, Calif.) using a shallow gradient. The labeled glycans were detected using a fluorescence detector with an excitation wavelength of 330 nm and an emission wavelength of 420 nm.
Concentrations of the respective iron compounds were chosen so as to minimize any potential adverse impacts on cell growth and productivity, but still facilitate a measurable impact on the glycoform profile. […] Cell culture process performance indicators were monitored and measured throughout the respective cultures. Viable cell density, cell viability, harvest titer, and harvest N-glycan oligosaccharide data was measured and reported.
By introducing iron to the culture via the feed medium, exposure to iron would be more gradual over the length of the culture. The impact to Antibody 1 was evaluated in triplicate shake flasks as described previously.
All evaluations were performed in triplicate in shake flasks with the cell line expressing Antibody 1.
The next set of experiments explored if iron transport into the cell or the galactose availability were the limiting factors. Recombinant transferrin (rTf) was added to triplicate shake flask cultures with the cell line expressing Antibody 1 with varying concentrations of ferric citrate. An independent experiment was performed with the same cell line to also determine if galactose supplementation in addition to iron and transferrin would enhance the galactosylation with triplicate shake flasks for each condition.

[5] = Example 2, vs unsupplemented control

In the case of ferric citrate, the “increase of peak viable cell density” value [1] is reported as 4 ×10^6 cells/mL, the galactosylation ([2]; increased concentration (0.1, 1 mM)) is reported as “increased galactosylation” and the “increase in total NA1F and NA2F species” value [3] is reported as “dose-dependence effect”. The “N-glycan glycoform profile (overall result)” value ([4]; Example 2, concentration dependence below 1.0 mM) was “very similar results to ferric nitrate”.
With `O=C[C@H](O)[C@@H](O)[C@@H](O)[C@H](O)CO` [galactose] the galactosylation ([4]; supplemented with iron (ferric citrate)) was “increased galactosylation is observed overall” and the “dose dependence of galactosylation” value ([4]; Example 8, galactose supplementation with ferric citrate) was “dose-dependence is observed”.
“transferrin: Recombinant transferrin (rTf) added to shake flask cultures” was tested, and the galactosylation ([4]; added with varying concentrations of ferric citrate, without galactose) was “no impact was observed to the galactosylation”.
With ferrous sulfate the “increase in NA2F species” value [4, 5] was 3 fold and the “increase in total NA1F species” value [4, 5] was 3 fold.
`O=C([O-])CC(O)(CC(=O)[O-])C(=O)[O-].[Na+].[Na+].[Na+]` [Sodium citrate, reference compound] was tested, and the “effect on oligosaccharide profile” value ([2]; 0.5 mM, vs unsupplemented control) was “no effect on the oligosaccharide profile”.
